This is an account of results in patent US20250206729A1, “DUAL RAF AND TUBULIN INHIBITORS AND METHODS OF USE THEREOF” (Deciphera Pharmaceuticals, LLC, priority 2023, published 2025).

The target of assay [1] is T1, B-Raf kinase (SEQ ID NO: 1) (Homo sapiens, UniProt P15056).
T1 construct: GST (N); purchased Sigma
The assay can be described thus: Biochemical assay for B-Raf (coupled pyruvate kinase/lactate dehydrogenase). Particulars: 1 mM ATP; read-out: BRAF (inhibition of biochemical activity, IC50).

Assay [2] has as its target T2, C-Raf kinase (SEQ ID NO: 2) (Homo sapiens, UniProt P04049, Y340D/Y341D).
T2 construct: C-Raf residues 306-end; Y340D, Y341D with N-; GST (N); purchased Sigma
The experiment in a line: Biochemical assay for C-Raf (coupled pyruvate kinase/lactate dehydrogenase). Particulars: 1 mM ATP; read-out: CRAF (inhibition of biochemical activity, IC50).

The next assay concerns MiaPaca-2 cells. The assay can be described thus: MiaPaca-2 cell proliferation assay. The format is cell-based. The following applies: Homo sapiens, MIA PaCa-2; 67-72 h incubation, resazurin; read-out: MiaPaca-2 (inhibition of cell proliferation, IC50). Here is the method: Miapaca-2 cells (catalog #CRL-1420) are obtained from the American Type Culture Collect (ATTC, Manassas, VA). Briefly, cells were grown in DMEM supplemented with 10% characterized fetal bovine serum (Invitrogen, Carlsbad, CA), 2.5% New Zealand sourced horse serum and 1% Penicillin/Streptomycin/L-Glutamine at 37° C., 5% CO2, and 95% humidity. Cells are expanded until reaching 70-95% confluency at which point they are sub-cultured or harvested for assay use. A serial dilution of test compound is dispensed into a 384-well black clear bottom plate in triplicate. Seven hundred fifty cells are added per well in 50 μL complete growth medium in the 384-well plate. Plates are incubated for 67-72 h at 37° C., 5% CO2, and 95% humidity. At the end of the incubation, 10 μL of a 440 μM solution of resazurin (Sigma, St. Louis, MO) in PBS is added to each well of the plate and plates are incubated for an additional 5-6 h at 37° C., 5% CO2, and 95% humidity. Plates are read on a Synergy2 or equivalent reader (Biotek, Winooski VT) using an excitation of 540 nm and an emission of 600 nm. Data is analyzed using Prism software (GraphPad, San Diego, CA) to calculate IC50 values.
A general note: The colour change of resazurin is a common sign of viable cells or microbes.

For a further assay, the system named is HCT-116 cells. The experiment in a line: HCT-116 cell proliferation assay. The format is cell-based. The following applies: Homo sapiens, HCT-116; 67 to 72 h incubation, resazurin; read-out: HCT-116 (inhibition of cell proliferation, IC50). Here is the method: HCT-116 cells (catalog #CCL-247) are obtained from the American Type Culture Collect (ATCC, Manassas, VA). Briefly, cells are grown in McCoy's 5A supplemented with 10% characterized fetal bovine serum (Invitrogen, Carlsbad, CA) and 1% Penicillin/Streptomycin/L-Glutamine at 37° C., 5% CO2, and 95% humidity. Cells are expanded until reaching 70-95% confluency at which point they are sub-cultured or harvested for assay use. A serial dilution of test compound is dispensed into a 384-well black clear bottom plate in triplicate. 375 cells are added per well in 50 μL complete growth medium in the 384-well plate. Plates are incubated for 67 to 72 h at 37° C., 5% CO2, and 95% humidity. At the end of the incubation, 40 μL of a […] solution of resazurin (Sigma, St. Louis, MO) in PBS is added to each well of the plate and plates are incubated for an additional 4 to 5 h at 37° C., 5% CO2, and 95% humidity. Plates are read on a Synergy2 or equivalent reader (Biotek, Winooski, VT) using an excitation of 540 nm and an emission of 600 nm. Data is analyzed using Prism software (Graphpad, San Diego, CA) to calculate IC50 values.

Another assay deals with HPAF-II cells. The experiment in a line: HPAF-II cell proliferation assay. The format is cell-based. Particulars: Homo sapiens, HPAF-II; 115 to 120 h incubation, resazurin; read-out: HPAF-II (inhibition of cell proliferation, IC50). Here is the method:
(§1) HPAF-II cells (catalog #CRL-1997) are obtained from the American Type Culture Collect (ATCC, Manassas, VA). Briefly, cells are grown in Minimum Essential Media supplemented with 10% characterized fetal bovine serum (Invitrogen, Carlsbad, CA) and 1% Penicillin/Streptomycin/L-Glutamine at 37° C., 5% CO2, and 95% humidity. Cells are expanded until reaching 70-95% confluency at which point they are sub-cultured or harvested for assay use. A serial dilution of test compound is dispensed into a 384-well black clear bottom plate in triplicate. 750 cells are added per well in 50 μL complete growth medium in the 384-well plate. Plates are incubated for 115 to 120 h at 37° C., 5% CO2, and 95% humidity. At the end of the incubation, 40 μL of a […] solution of resazurin (Sigma, St. Louis, MO) in PBS is added to each well of the plate and plates are incubated for an additional 18 to 24 h at 37° C., 5% CO2, and 95% humidity. Plates are read on a Synergy2 or equivalent reader (Biotek, Winooski, VT) using an excitation of 540 nm and an emission of 600 nm. Data is analyzed using Prism software (Graphpad, San Diego, CA) to calculate IC50 values.

A further assay has as its system Pa16c cells. The experiment in a line: Pa16c cell proliferation assay. The format is cell-based. The following applies: 67 to 72 h incubation, resazurin; read-out: Pa16c (inhibition of cell proliferation, IC50). As for the experimental part: as §1, with “Pa16c” for “HPAF-II”, “cells” for “cells (catalog #CRL-1997)”, “Dr. Channing Der, University of North Carolina at Chapel Hill.” for “the American Type Culture Collect (ATCC, Manassas, VA).”, “Dulbecco's Modified Eagle Medium” for “Minimum Essential Media”, “67” for “115”, “72” for “120”

Bounds are passed on as bounds.

T2 sequence (P04049 307-648 Y340D/Y341D): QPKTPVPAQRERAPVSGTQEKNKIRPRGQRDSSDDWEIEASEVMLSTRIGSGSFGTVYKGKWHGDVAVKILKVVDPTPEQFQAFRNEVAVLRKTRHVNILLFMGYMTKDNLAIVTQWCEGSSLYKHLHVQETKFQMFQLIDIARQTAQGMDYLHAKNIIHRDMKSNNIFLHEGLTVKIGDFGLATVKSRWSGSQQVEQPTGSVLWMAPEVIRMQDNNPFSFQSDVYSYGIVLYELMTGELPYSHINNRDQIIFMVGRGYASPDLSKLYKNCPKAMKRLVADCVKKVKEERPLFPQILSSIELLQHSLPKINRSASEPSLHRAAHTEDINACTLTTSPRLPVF
T1 sequence (P15056 416-766): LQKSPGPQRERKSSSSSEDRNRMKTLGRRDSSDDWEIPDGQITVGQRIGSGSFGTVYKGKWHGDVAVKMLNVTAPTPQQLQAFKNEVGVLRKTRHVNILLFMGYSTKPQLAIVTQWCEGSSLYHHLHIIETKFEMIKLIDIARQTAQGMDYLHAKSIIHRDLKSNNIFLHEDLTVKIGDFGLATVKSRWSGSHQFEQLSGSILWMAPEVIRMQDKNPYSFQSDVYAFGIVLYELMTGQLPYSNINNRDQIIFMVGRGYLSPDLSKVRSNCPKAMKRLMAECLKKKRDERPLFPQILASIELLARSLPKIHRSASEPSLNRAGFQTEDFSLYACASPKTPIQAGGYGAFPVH

Regarding `Cc1ccc(NC(=O)c2cncc(Cl)c2)cc1-c1cc(N[C@H](C)CO)nc(N2CCOCC2)c1` [Example 16], the IC50 in assay [1] was less than 100 nM; in assay [2], less than 100 nM; in the assay on MiaPaca-2 cells, 100 to 500 nM; in the assay on HCT-116 cells, 500 to 1000 nM; with HPAF-II cells it was 500 to 1000 nM; in the assay with Pa16c cells, 1000 to 10000 nM.

On to `Cc1ccc(NC(=O)c2cnc(C3CC3)nc2)cc1-c1cc(N[C@H](C)CO)nc(N2CCOCC2)c1` [Example 17], for which the IC50 in assay [1] was 100 to 500 nM; in assay [2], less than 100 nM; with MiaPaca-2 cells, 500 to 1000 nM; in the assay on HCT-116 cells, 500 to 1000 nM; in the assay on HPAF-II cells it was 500 to 1000 nM; with Pa16c cells, 1000 to 10000 nM.

As for `Cc1ccc(NC(=O)c2cncc(C3CC3)c2)cc1-c1cc(N[C@H](C)CO)nc(N2CCOCC2)c1` [Example 18], the IC50 in assay [1] is less than 100 nM; in assay [2] it was less than 100 nM; in the assay on MiaPaca-2 cells, 100 to 500 nM; in the assay with HCT-116 cells it was 100 to 500 nM; in the assay on HPAF-II cells, 100 to 500 nM; in the assay with Pa16c cells, 1000 to 10000 nM.

For `Cc1cc(-c2cc(NC(=O)c3cc(C4CC4)cnn3)ccc2C)cc(N2CCOCC2)n1` [Example 20], the IC50 in assay [1] was less than 100 nM; in assay [2], less than 100 nM; with MiaPaca-2 cells, 100 to 500 nM; in the assay with HCT-116 cells, 100 to 500 nM; in the assay with HPAF-II cells, 100 to 500 nM; in the assay with Pa16c cells, 1000 to 10000 nM.

In the case of `Cc1ccc(NC(=O)c2cc(C(F)(F)F)cnn2)cc1-c1cnnc(N2CCOCC2)c1` [Example 21, N-(4-methyl-3-(6-morpholinopyridazin-4-yl)phenyl)-5-(trifluoromethyl)pyridazine-3-carboxamide], the IC50 in assay [1] was in the range of 500 to 1000 nM; in assay [2], 500 to 1000 nM; in the assay with MiaPaca-2 cells, 500 to 1000 nM; in the assay on HCT-116 cells, 500 to 1000 nM; with HPAF-II cells, 500 to 1000 nM; with Pa16c cells it was 1000 to 10000 nM.

Consider `Cc1ccc(NC(=O)c2cc(C(F)(F)F)cnn2)cc1-c1cc(N2CCOCC2)cnn1` [Example 22], for which the IC50 (in assay [1]; in assay [2]; in the assay on MiaPaca-2 cells; in the assay with HCT-116 cells; in the assay with HPAF-II cells; in the assay on Pa16c cells) was 1000 to 10000 nM each time.

Consider `Cc1ccc(NC(=O)c2cc(C(C)(C)F)cnn2)cc1-c1cc(N[C@H](C)CO)nc(N2CCOCC2)c1` [Example 23], for which the IC50 in assay [1] was less than 100 nM; in assay [2], less than 100 nM; in the assay on MiaPaca-2 cells it was less than 100 nM; in the assay with HCT-116 cells, less than 100 nM; in the assay on HPAF-II cells, less than 100 nM; with Pa16c cells it was 100 to 500 nM.

With `Cc1ccc(NC(=O)c2cc(C3CC3)cnn2)cc1-c1cncc(N2CCOCC2)c1` [Example 24], the IC50 in assay [1] was 100 to 500 nM; in assay [2], less than 100 nM; in the assay on MiaPaca-2 cells, 100 to 500 nM; in the assay with HCT-116 cells it was 100 to 500 nM; with HPAF-II cells, 100 to 500 nM; in the assay with Pa16c cells, 100 to 500 nM.

On to `Cc1ccc(NC(=O)c2cc(C(F)(F)F)cnn2)cc1-c1cc(N2CCOCC2)ncn1` [Example 25], for which the IC50 was 500 to 1000 nM in assay [1]; 500 to 1000 nM in assay [2]; 100 to 500 nM in the assay on MiaPaca-2 cells; 100 to 500 nM in the assay with HCT-116 cells; 100 to 500 nM in the assay on HPAF-II cells; 1000 to 10000 nM in the assay with Pa16c cells.

Turning to `Cc1ccc(NC(=O)c2cc(C(F)(F)F)cnn2)cc1-c1ccnc(N2CCOC(C(F)F)C2)c1` (stereo not drawn) [Example 26], the IC50 in assay [1] lay within 100 to 500 nM; in assay [2] it was 100 to 500 nM; in the assay on MiaPaca-2 cells, 100 to 500 nM; with HCT-116 cells, 100 to 500 nM; in the assay with HPAF-II cells it was 100 to 500 nM; in the assay on Pa16c cells, 500 to 1000 nM.

Consider `Cc1ccc(NC(=O)c2cc(C(F)(F)F)cnn2)cc1-c1cc(N[C@H](C)CO)nc(N2CCOCC2)n1` [Example 28], for which the IC50 is 100 to 500 nM in assay [1]; 100 to 500 nM in assay [2]; less than 100 nM with MiaPaca-2 cells; 100 to 500 nM with HCT-116 cells; less than 100 nM in the assay with HPAF-II cells; less than 100 nM in the assay on Pa16c cells.

Take `Cc1ccc(NC(=O)c2cc(C(F)(F)F)cnn2)cc1-c1cc(OCCO)nc(N2CCOCC2)n1` [Example 30]: the IC50 in assay [1] is 500 to 1000 nM; in assay [2], 100 to 500 nM; with MiaPaca-2 cells, 100 to 500 nM; in the assay with HCT-116 cells it was 100 to 500 nM; with HPAF-II cells it was 100 to 500 nM; in the assay with Pa16c cells, 100 to 500 nM.

On to `Cc1ccc(NC(=O)c2cc(C3CC3)cnn2)cc1-c1ccnc(N2CCOCC2)n1` [Example 31], for which the IC50 in assay [1] was 1000 to 10000 nM; in assay [2], 500 to 1000 nM; in the assay with MiaPaca-2 cells it was 100 to 500 nM; in the assay on HCT-116 cells, 100 to 500 nM; in the assay on HPAF-II cells, 100 to 500 nM; in the assay on Pa16c cells, less than 100 nM.

Take `Cc1ccc(NC(=O)c2cc(Cl)cnn2)cc1-c1cc(OCCO)nc(N2CCOCC2)c1` [Example 32]: the IC50 in assay [1] was 500 to 1000 nM; in assay [2], 100 to 500 nM; in the assay with MiaPaca-2 cells, 1000 to 10000 nM; in the assay with HCT-116 cells it was 100 to 500 nM; in the assay on HPAF-II cells it was 1000 to 10000 nM; with Pa16c cells, 500 to 1000 nM.

For `Cc1ccc(NC(=O)c2cc(C(F)(F)F)cnn2)cc1-c1cc(N2CCOCC2)nc(N[C@H](C)CO)n1` [Example 33], the IC50 in assay [1] is 100 to 500 nM; in assay [2] it was less than 100 nM; in the assay on MiaPaca-2 cells it was 100 to 500 nM; with HCT-116 cells, 100 to 500 nM; in the assay with HPAF-II cells, 100 to 500 nM; in the assay with Pa16c cells, 100 to 500 nM.

For the compound `Cc1ccc(NC(=O)c2cc(C3CC3)cnn2)cc1-c1cc(N2CCOCC2)nc(N[C@H](C)CO)n1` [Example 35], the IC50 is less than 100 nM in assay [1]; less than 100 nM in assay [2]; 100 to 500 nM in the assay with MiaPaca-2 cells; 100 to 500 nM in the assay with HCT-116 cells; 100 to 500 nM in the assay with HPAF-II cells; 100 to 500 nM in the assay on Pa16c cells.

`Cc1ccc(NC(=O)c2cc(C3CC3)cnn2)cc1-c1cc(N[C@H](C)CO)nc(N2CCOCC2)n1` [Example 36]: the IC50 is 100 to 500 nM in assay [1]; 100 to 500 nM in assay [2]; 100 to 500 nM in the assay on MiaPaca-2 cells; 100 to 500 nM in the assay with HCT-116 cells; 100 to 500 nM with HPAF-II cells; 500 to 1000 nM in the assay with Pa16c cells.
